Assay results reported in patent US6784137B2, “6-aryl-4-aminopicolinates and their use as herbicides” (Dow AgroSciences LLC, priority 2001, dated 2004).

Assays:
[1] = tested on: Barnyardgrass (Echinochloa crus-galli); experiment: Postemergence herbicidal activity, greenhouse spray; format: in vivo; details: Echinochloa crus-galli, post-emergence, 336 h, visual score after 2 weeks, read-out: Post-emergent % control ECHCG; for pest or weed control at 250 ppm / pest or weed control at 500 ppm: Table 1; for pest or weed control at 250 ppm: rate 250 ppm; for pest or weed control at 500 ppm: rate 500 ppm; for pest or weed control at 125 ppm: Table 2, rate 125 ppm
Protocol: (§1) When required to ensure good germination and healthy plants, a fungicide treatment and/or other chemical or physical treatment was applied. The plants were grown for 7-21 days in a greenhouse with an approximate 15 hr photoperiod which was maintained at about 23-29° C. during the day and 22-28° C. during the night. Nutrients and water were added on a regular basis and supplemental lighting was provided with overhead metal halide 1000-Watt lamps as necessary. The plants were employed for testing when they reached the first or second true leaf stage. A weighed amount, determined by the highest rate to be tested, of each test compound was placed in a 20 mL glass vial and was dissolved in 4 mL of a 97:3 v/v (volume/volume) mixture of acetone and dimethyl sulfoxide (DMSO) to obtain concentrated stock solutions. […] The concentrated stock solutions obtained were diluted with an aqueous mixture containing acetone, water, isopropyl alcohol, DMSO, At plus 411 F crop oil concentrate, and Triton X-155 surfactant in a 48.5:39:10:1.5:1.0:0.02 v/v ratio to obtain spray solutions of known concentration. The solutions containing the highest concentration to be tested were prepared by diluting 2 mL aliquots of the stock solution with 13 mL of the mixture and lower concentrations were prepared by serial dilution of the stock solution. Approximately 1.5 mL aliquots of each solution of known concentration were sprayed evenly onto each of the test plant pots using a DeVilbiss atomizer driven by compressed air pressure of 2 to 4 psi (140 to 280 kiloPascals) to obtain thorough coverage of each plant. Control plants were sprayed in the same manner with the aqueous mixture. […] The treated plants and control plants were placed in a greenhouse as described above and watered by sub-irrigation to prevent wash-off of the test compounds.

[2] = tested on: Cocklebur (Xanthium strumarium); experiment: as above; format: in vivo; details: Xanthium strumarium, post-emergence, 336 h, visual score after 2 weeks, read-out: Post-emergent % control XANST; for pest or weed control at 250 ppm / pest or weed control at 500 ppm: Table 1; for pest or weed control at 250 ppm: rate 250 ppm; for pest or weed control at 500 ppm: rate 500 ppm, 0 no injury, 100 complete kill; for pest or weed control at 125 ppm: Table 2, rate 125 ppm
Protocol: as §1

[3] = tested on: Lambsquarter (Chenopodium album); experiment: as above; format: in vivo; details: Chenopodium album, post-emergence, 336 h, visual score after 2 weeks, read-out: Post-emergent % control CHEAL; for pest or weed control at 250 ppm / pest or weed control at 500 ppm: Table 1; for pest or weed control at 250 ppm: rate 250 ppm; for pest or weed control at 500 ppm: rate 500 ppm; for pest or weed control at 125 ppm: Table 2, rate 125 ppm
Protocol: as §1

[4] = tested on: Yellow nutsedge (Cyperus esculentus); experiment: as above; format: in vivo; details: Cyperus, post-emergence, 336 h, visual score after 2 weeks, read-out: Post-emergent % control CYPES; for pest or weed control at 250 ppm / pest or weed control at 500 ppm: Table 1; for pest or weed control at 250 ppm: rate 250 ppm; for pest or weed control at 500 ppm: rate 500 ppm; for pest or weed control at 125 ppm: Table 2, rate 125 ppm
Protocol: as §1

[5] = tested on: Crabgrass(large) (Digitaria sanguinalis); experiment: Preemergence herbicidal activity, soil spray; format: in vivo; details: Digitaria sanguinalis, pre-emergence, 504 h, Table 5, visual score after 3 weeks, read-out: Pre-emergent % control DIGSA; for pest or weed control at 560 ppm: rate 560 ppm
Description: (§2) Seeds of the desired test plant species were planted in a soil matrix prepared by mixing a loam soil (43 percent silt, 19 percent clay, and 38 percent sand, with a pH of about 8.1 and an organic matter content of about 1.5 percent) and sand in a 70 to 30 ratio. The soil matrix was contained in plastic pots with a surface area of 113 square centimeters. When required to ensure good germination and healthy plants, a fungicide treatment and/or other chemical or physical treatment was applied. A weighed amount, determined by the highest rate to be tested, of each test compound was placed in a 20 mL glass vial and was dissolved in 4 mL of a 97:3 v/v (volume/volume) mixture of acetone and dimethyl sulfoxide to obtain concentrated stock solutions. […] The stock solutions obtained were diluted with a 99.9:0.1 mixture of water and Tween® 155 surfactant to obtain application solutions of known concentration. The solutions containing the highest concentration to be tested were prepared by diluting 2 mL aliquots of the stock solution with 15 mL of the mixture and lower concentrations were prepared by serial dilution of the stock solution. A 2.5 mL aliquot of each solution of known concentration was sprayed evenly onto the soil surface (113 sq. cm) of each seeded pot using a Cornwall 5.0 mL glass syringe fitted with a TeeJet TN-3 hollow cone nozzle to obtain thorough coverage of the soil in each pot. Control pots were sprayed in the same manner with the aqueous mixture. The treated pots and control pots were placed in a greenhouse maintained with an approximate 15 hr photoperiod and temperatures of about 23-29° C. during the day and 22-28° C. during the night. Nutrients and water were added on a regular basis and supplemental lighting was provided with overhead metal halide 1000-Watt lamps as necessary. The water was added by top-irrigation.

[6] = tested on: Giant Foxtail (Setaria faberi); experiment: Preemergence herbicidal activity, soil spray; format: in vivo; details: Setaria faberi, pre-emergence, 504 h, Table 5, visual score after 3 weeks, read-out: Pre-emergent % control SETFA; for pest or weed control at 560 ppm: rate 560 ppm
Description: as §2

[7] = tested on: Lambsquarter (Chenopodium album); experiment: Preemergence herbicidal activity, soil spray; format: in vivo; details: Chenopodium album, pre-emergence, 504 h, Table 5, visual score after 3 weeks, read-out: Pre-emergent % control CHEAL; for pest or weed control at 560 ppm: rate 560 ppm, 100 complete kill or no germination
Description: as §2

[8] = tested on: Pigweed (redroot) (Amaranthus retroflexus); experiment: Preemergence herbicidal activity, soil spray; format: in vivo; details: Amaranthus retroflexus, pre-emergence, 504 h, Table 5, visual score after 3 weeks, read-out: Pre-emergent % control AMARE; for pest or weed control at 560 ppm: rate 560 ppm
Description: as §2

| melting point [°C] | SMILES | pest or weed control at 250 ppm [1] [%] | pest or weed control at 250 ppm [2] [%] | pest or weed control at 250 ppm [3] [%] | pest or weed control at 250 ppm [4] [%] | pest or weed control at 560 ppm [5] [%] | pest or weed control at 560 ppm [6] [%] | pest or weed control at 560 ppm [7] [%] | pest or weed control at 560 ppm [8] [%] | pest or weed control at 500 ppm [1] [%] | pest or weed control at 500 ppm [2] [%] | pest or weed control at 500 ppm [3] [%] | pest or weed control at 500 ppm [4] [%] | pest or weed control at 125 ppm [1] [%] | pest or weed control at 125 ppm [2] [%] | pest or weed control at 125 ppm [3] [%] | pest or weed control at 125 ppm [4] [%] | also measured |
| --- | --- | --- | --- | --- | --- | --- | --- | --- | --- | --- | --- | --- | --- | --- | --- | --- | --- | --- |
| 160 | COC(=O)c1nc(-c2ccc3c(c2)OCO3)c(F)c(N)c1Cl [Compound 84, Methyl 4-amino-3-chloro-5-fluoro-6-(3,4-methylenedioxyphenyl)pyridine-2-carboxylate] | 98 | 100 | 100 | 100 | 100 | 100 | 100 | 100 |  |  |  |  | 98 | 100 | 100 | 90 |  |
| 160 to 162 | COC(=O)c1nc(-c2ccc(Cl)cc2)c(Cl)c(N)c1Cl [Compound 86, Methyl 4-amino-3,5-dichloro-6-(4-chlorophenyl)pyridine-2-carboxylate] |  |  |  |  | 40 | 40 | 100 | 100 | 90 | 100 | 100 | 90 | 80 | 100 | 100 | 100 |  |
| 122 | COC(=O)c1nc(-c2ccc(Cl)cc2Cl)c(F)c(N)c1Cl [Compound 88, Methyl 4-amino-3-chloro-5-fluoro-6-(2,4-dichlorophenyl)pyridine-2-carboxylate] | 85 | 100 | 100 | 95 | 70 | 70 | 100 | 100 |  |  |  |  | 85 | 100 | 100 | 95 |  |
| 165 to 166 | COC(=O)c1nc(-c2ccc(Cl)cc2)c(F)c(N)c1F [Compound 90, Methyl 4-amino-3,5-difluoro-6-(4-chlorophenyl)pyridine-2-carboxylate] |  |  |  |  | 100 | 100 | 100 | 100 | 98 | 100 | 100 | 90 |  |  |  |  |  |
| 145 to 146 | COC(=O)c1nc(-c2ccc(C)cc2)c(F)c(N)c1F [Compound 91, Methyl 4-amino-3,5-difluoro-6-(4-methylphenyl)pyridine-2-carboxylate] |  |  |  |  | 100 | 60 | 90 | 100 | 90 | 100 | 100 | 80 |  |  |  |  |  |

Continued, molecule first:

| SMILES | melting point [°C] | pest or weed control at 250 ppm [1] [%] | pest or weed control at 250 ppm [2] [%] | pest or weed control at 250 ppm [3] [%] | pest or weed control at 250 ppm [4] [%] | pest or weed control at 560 ppm [5] [%] | pest or weed control at 560 ppm [6] [%] | pest or weed control at 560 ppm [7] [%] | pest or weed control at 560 ppm [8] [%] | pest or weed control at 500 ppm [1] [%] | pest or weed control at 500 ppm [2] [%] | pest or weed control at 500 ppm [3] [%] | pest or weed control at 500 ppm [4] [%] | pest or weed control at 125 ppm [1] [%] | pest or weed control at 125 ppm [2] [%] | pest or weed control at 125 ppm [3] [%] | pest or weed control at 125 ppm [4] [%] | also measured |
| --- | --- | --- | --- | --- | --- | --- | --- | --- | --- | --- | --- | --- | --- | --- | --- | --- | --- | --- |
| COC(=O)c1nc(-c2ccc(OC)cc2)cc(N)c1Cl [Compound 17, Methyl 4-amino-3-chloro-6-(4-methoxyphenyl)pyridine-2-carboxylate] | 148 to 149 | 70 | 100 | 100 | 70 | 100 | 100 | 100 | 100 |  |  |  |  |  |  |  |  |  |
| COC(=O)c1nc(-c2ccc(Cl)cc2)cc(N)c1Cl [Compound 19, Methyl 4-amino-3-chloro-6-(4-chlorophenyl)pyridine-2-carboxylate] | 132 | 80 | 100 | 95 | 90 | 100 | 100 | 100 | 100 |  |  |  |  |  |  |  |  |  |
| COC(=O)c1nc(-c2cccc(Cl)c2)cc(N)c1Cl [Compound 27, Methyl 4-amino-3-chloro-6-(3-chlorophenyl)pyridine-2-carboxylate] | 141 | 70 | 95 | 95 | 60 | 100 | 100 | 100 | 100 |  |  |  |  |  |  |  |  |  |
| COC(=O)c1nc(-c2ccc(C(F)(F)F)cc2)cc(N)c1Cl [Compound 28, Methyl 4-amino-3-chloro-6-[4-(trifluoromethyl)phenyl]pyridine-2-carboxylate] | 149 | 75 | 100 | 100 | 80 | 100 | 100 | 100 | 100 |  |  |  |  |  |  |  |  |  |
| COC(=O)c1nc(-c2ccc(F)c(Cl)c2)cc(N)c1Cl [Compound 39, Methyl 4-amino-3-chloro-6-(3-chloro-4-fluorophenyl)pyridine-2-carboxylate] | 169 to 170 |  |  |  |  |  |  |  |  | 95 | 100 | 100 | 99 |  |  |  |  | pest or weed control at 140 ppm ([5]; rate 140 ppm): 95%; pest or weed control at 140 ppm ([6]; rate 140 ppm): 75%; pest or weed control at 140 ppm ([7]; rate 140 ppm): 95%; pest or weed control at 140 ppm ([8]; rate 140 ppm): 100% |
